Assay: Phase I dose escalation study: safety, tolerability, DLT and MTD
Assay type: in vivo

Cc1cccc2c1NC(=O)[C@@H](NC(=O)[C@H](CCC(F)(F)F)[C@H](CCC(F)(F)F)C(N)=O)N=C2c1cccc(F)c1 [BMS-986115]
13 (36) n (%): Decreased Appetite (drug related AE, all grades) (All patients (N = 36))
2 (100) n (%): Hypophosphataemia (drug related AE, all grades) (Arm A QD 0.3 mg (N = 2))
11 (31) n (%): Rash (drug related AE, all grades) (All patients (N = 36))
22 (61) n (%): Nausea (drug related AE, all grades) (All patients (N = 36))
≤ 24 h: Time for Gr 3/4 diarrhoea to resolve to Gr 1 (1.5 mg QD, with appropriate medical management)
16 (44) n (%): Fatigue (drug related AE, all grades) (All patients (N = 36)) | Vomiting (drug related AE, all grades) (All patients (N = 36))
5 (14) n (%): Dehydration (drug related AE, all grades) (All patients (N = 36)) | Dry skin (drug related AE, all grades) (All patients (N = 36)) | Dysgeusia (drug related AE, all grades) (All patients (N = 36)) | Dysphonia (drug related AE, all grades) (All patients (N = 36)) | Rash maculopapular (drug related AE, all grades) (All patients (N = 36))
1 (3) n (%): Abdominal pain (drug related AE, Grade 3 and 4) (All patients (N = 36)) | Colitis (drug related AE, Grade 3 and 4) (All patients (N = 36)) | Cough (drug related AE, Grade 3 and 4) (All patients (N = 36)) | Decreased Appetite (drug related AE, Grade 3 and 4) (All patients (N = 36)) | Dehydration (drug related AE, Grade 3 and 4) (All patients (N = 36)) | Fatigue (drug related AE, Grade 3 and 4) (All patients (N = 36)) | Hypocalcaemia (drug related AE, Grade 3 and 4) (All patients (N = 36)) | Ileus (drug related AE, Grade 3 and 4) (All patients (N = 36)) | Leucocytosis (drug related AE, Grade 3 and 4) (All patients (N = 36)) | Pruritus (drug related AE, Grade 3 and 4) (All patients (N = 36)) | Pulmonary embolism (drug related AE, Grade 3 and 4) (All patients (N = 36)) | Urticaria (drug related AE, Grade 3 and 4) (All patients (N = 36)) | Vomiting (drug related AE, Grade 3 and 4) (All patients (N = 36))
4 (11) n (%): Cough (drug related AE, all grades) (All patients (N = 36)) | Dermatitis acneiform (drug related AE, all grades) (All patients (N = 36)) | Hypokalaemia (drug related AE, Grade 3 and 4) (All patients (N = 36)) | Nausea (drug related AE, Grade 3 and 4) (All patients (N = 36))
29%: Gr 3/4 diarrhoea related to the study treatment (1.5 mg QD, 2 of 7 patients)
0 n (%): Abdominal distension (drug related AE, all grades) (Arm A QD 0.3 mg (N = 2)) | Abdominal pain (drug related AE, Grade 3 and 4) (Arm A QD 0.3 mg (N = 2)) | Abdominal pain (drug related AE, all grades) (Arm A QD 0.3 mg (N = 2)) | Blood creatinine increased (drug related AE, all grades) (Arm A QD 0.3 mg (N = 2)) | Colitis (drug related AE, Grade 3 and 4) (Arm A QD 0.3 mg (N = 2)) | Cough (drug related AE, Grade 3 and 4) (Arm A QD 0.3 mg (N = 2)) | Cough (drug related AE, all grades) (Arm A QD 0.3 mg (N = 2)) | Decreased Appetite (drug related AE, Grade 3 and 4) (Arm A QD 0.3 mg (N = 2)) | Decreased Appetite (drug related AE, all grades) (Arm A QD 0.3 mg (N = 2)) | Dehydration (drug related AE, Grade 3 and 4) (Arm A QD 0.3 mg (N = 2)) | Dehydration (drug related AE, all grades) (Arm A QD 0.3 mg (N = 2)) | Dermatitis acneiform (drug related AE, all grades) (Arm A QD 0.3 mg (N = 2)) | Diarrhoea (drug related AE, Grade 3 and 4) (Arm A QD 0.3 mg (N = 2)) | Diarrhoea (drug related AE, all grades) (Arm A QD 0.3 mg (N = 2)) | Dry mouth (drug related AE, all grades) (Arm A QD 0.3 mg (N = 2)) | Dry skin (drug related AE, all grades) (Arm A QD 0.3 mg (N = 2)) | Dysgeusia (drug related AE, all grades) (Arm A QD 0.3 mg (N = 2)) | Dyspepsia (drug related AE, all grades) (Arm A QD 0.3 mg (N = 2)) | Dysphonia (drug related AE, all grades) (Arm A QD 0.3 mg (N = 2)) | Fatigue (drug related AE, Grade 3 and 4) (Arm A QD 0.3 mg (N = 2)) | Fatigue (drug related AE, all grades) (Arm A QD 0.3 mg (N = 2)) | Flatulence (drug related AE, all grades) (Arm A QD 0.3 mg (N = 2)) | Hypocalcaemia (drug related AE, Grade 3 and 4) (Arm A QD 0.3 mg (N = 2)) | Hypocalcaemia (drug related AE, all grades) (Arm A QD 0.3 mg (N = 2)) | Hypokalaemia (drug related AE, Grade 3 and 4) (Arm A QD 0.3 mg (N = 2)) | Hypokalaemia (drug related AE, all grades) (Arm A QD 0.3 mg (N = 2)) | Hyponatraemia (drug related AE, Grade 3 and 4) (Arm A QD 0.3 mg (N = 2)) | Hyponatraemia (drug related AE, all grades) (Arm A QD 0.3 mg (N = 2)) | Ileus (drug related AE, Grade 3 and 4) (Arm A QD 0.3 mg (N = 2)) | Increased upper airway secretion (drug related AE, all grades) (Arm A QD 0.3 mg (N = 2)) | Laryngeal pain (drug related AE, all grades) (Arm A QD 0.3 mg (N = 2)) | Leucocytosis (drug related AE, Grade 3 and 4) (Arm A QD 0.3 mg (N = 2)) | Mouth ulceration (drug related AE, all grades) (Arm A QD 0.3 mg (N = 2)) | Nausea (drug related AE, Grade 3 and 4) (Arm A QD 0.3 mg (N = 2)) | Nausea (drug related AE, all grades) (Arm A QD 0.3 mg (N = 2)) | Pruritus (drug related AE, Grade 3 and 4) (Arm A QD 0.3 mg (N = 2)) | Pulmonary embolism (drug related AE, Grade 3 and 4) (Arm A QD 0.3 mg (N = 2)) | Rash maculopapular (drug related AE, all grades) (Arm A QD 0.3 mg (N = 2)) | Urticaria (drug related AE, Grade 3 and 4) (Arm A QD 0.3 mg (N = 2)) | Vision blurred (drug related AE, all grades) (Arm A QD 0.3 mg (N = 2)) | Vomiting (drug related AE, Grade 3 and 4) (Arm A QD 0.3 mg (N = 2)) | Vomiting (drug related AE, all grades) (Arm A QD 0.3 mg (N = 2)) | Weight decreased (drug related AE, all grades) (Arm A QD 0.3 mg (N = 2)) | Abdominal distension (drug related AE, all grades) (Arm A QD 0.6 mg (N = 2)) | Abdominal pain (drug related AE, Grade 3 and 4) (Arm A QD 0.6 mg (N = 2)) | Abdominal pain (drug related AE, all grades) (Arm A QD 0.6 mg (N = 2)) | Blood creatinine increased (drug related AE, all grades) (Arm A QD 0.6 mg (N = 2)) | Colitis (drug related AE, Grade 3 and 4) (Arm A QD 0.6 mg (N = 2)) | Cough (drug related AE, Grade 3 and 4) (Arm A QD 0.6 mg (N = 2)) | Cough (drug related AE, all grades) (Arm A QD 0.6 mg (N = 2)) | Decreased Appetite (drug related AE, Grade 3 and 4) (Arm A QD 0.6 mg (N = 2)) | Decreased Appetite (drug related AE, all grades) (Arm A QD 0.6 mg (N = 2)) | Dehydration (drug related AE, Grade 3 and 4) (Arm A QD 0.6 mg (N = 2)) | Dehydration (drug related AE, all grades) (Arm A QD 0.6 mg (N = 2)) | Dermatitis acneiform (drug related AE, all grades) (Arm A QD 0.6 mg (N = 2)) | Diarrhoea (drug related AE, Grade 3 and 4) (Arm A QD 0.6 mg (N = 2)) | Dry mouth (drug related AE, all grades) (Arm A QD 0.6 mg (N = 2)) | Dry skin (drug related AE, all grades) (Arm A QD 0.6 mg (N = 2)) | Dysgeusia (drug related AE, all grades) (Arm A QD 0.6 mg (N = 2)) | Dyspepsia (drug related AE, all grades) (Arm A QD 0.6 mg (N = 2)) | Dysphonia (drug related AE, all grades) (Arm A QD 0.6 mg (N = 2)) | Fatigue (drug related AE, Grade 3 and 4) (Arm A QD 0.6 mg (N = 2)) | Fatigue (drug related AE, all grades) (Arm A QD 0.6 mg (N = 2)) | Flatulence (drug related AE, all grades) (Arm A QD 0.6 mg (N = 2)) | Hypocalcaemia (drug related AE, Grade 3 and 4) (Arm A QD 0.6 mg (N = 2)) | Hypocalcaemia (drug related AE, all grades) (Arm A QD 0.6 mg (N = 2)) | Hypokalaemia (drug related AE, Grade 3 and 4) (Arm A QD 0.6 mg (N = 2)) | Hypokalaemia (drug related AE, all grades) (Arm A QD 0.6 mg (N = 2)) | Hyponatraemia (drug related AE, Grade 3 and 4) (Arm A QD 0.6 mg (N = 2)) | Hyponatraemia (drug related AE, all grades) (Arm A QD 0.6 mg (N = 2)) | Hypophosphataemia (drug related AE, Grade 3 and 4) (Arm A QD 0.6 mg (N = 2)) | Ileus (drug related AE, Grade 3 and 4) (Arm A QD 0.6 mg (N = 2)) | Increased upper airway secretion (drug related AE, all grades) (Arm A QD 0.6 mg (N = 2)) | Laryngeal pain (drug related AE, all grades) (Arm A QD 0.6 mg (N = 2)) | Leucocytosis (drug related AE, Grade 3 and 4) (Arm A QD 0.6 mg (N = 2)) | Mouth ulceration (drug related AE, all grades) (Arm A QD 0.6 mg (N = 2)) | Nausea (drug related AE, Grade 3 and 4) (Arm A QD 0.6 mg (N = 2)) | Pruritus (drug related AE, Grade 3 and 4) (Arm A QD 0.6 mg (N = 2)) | Pruritus (drug related AE, all grades) (Arm A QD 0.6 mg (N = 2)) | Pulmonary embolism (drug related AE, Grade 3 and 4) (Arm A QD 0.6 mg (N = 2))
6 subjects: Subjects with treatment-related SAEs (Arm A QD)
26 (72) n (%): Diarrhoea (drug related AE, all grades) (All patients (N = 36))
3 (8) n (%): Abdominal pain (drug related AE, all grades) (All patients (N = 36)) | Dry mouth (drug related AE, all grades) (All patients (N = 36)) | Dyspepsia (drug related AE, all grades) (All patients (N = 36)) | Flatulence (drug related AE, all grades) (All patients (N = 36)) | Increased upper airway secretion (drug related AE, all grades) (All patients (N = 36)) | Mouth ulceration (drug related AE, all grades) (All patients (N = 36))
10 (28) n (%): Hypokalaemia (drug related AE, all grades) (All patients (N = 36))
23 (64) n (%): Hypophosphataemia (drug related AE, all grades) (All patients (N = 36))
0: No. of patients with DLTs (Arm A QD 0.3 mg, 2 DLT evaluable patients)
7 (19) n (%): Diarrhoea (drug related AE, Grade 3 and 4) (All patients (N = 36))
1 (50) n (%): Hypophosphataemia (drug related AE, Grade 3 and 4) (Arm A QD 0.3 mg (N = 2)) | Pruritus (drug related AE, all grades) (Arm A QD 0.3 mg (N = 2)) | Rash (drug related AE, all grades) (Arm A QD 0.3 mg (N = 2)) | Sinusitis (drug related AE, all grades) (Arm A QD 0.3 mg (N = 2)) | Diarrhoea (drug related AE, all grades) (Arm A QD 0.6 mg (N = 2)) | Hypophosphataemia (drug related AE, all grades) (Arm A QD 0.6 mg (N = 2)) | Nausea (drug related AE, all grades) (Arm A QD 0.6 mg (N = 2)) | Rash (drug related AE, all grades) (Arm A QD 0.6 mg (N = 2))
2 (6) n (%): Abdominal distension (drug related AE, all grades) (All patients (N = 36)) | Blood creatinine increased (drug related AE, all grades) (All patients (N = 36)) | Hypocalcaemia (drug related AE, all grades) (All patients (N = 36)) | Hyponatraemia (drug related AE, Grade 3 and 4) (All patients (N = 36)) | Hyponatraemia (drug related AE, all grades) (All patients (N = 36)) | Laryngeal pain (drug related AE, all grades) (All patients (N = 36)) | Sinusitis (drug related AE, all grades) (All patients (N = 36)) | Vision blurred (drug related AE, all grades) (All patients (N = 36)) | Weight decreased (drug related AE, all grades) (All patients (N = 36))
14 (39) n (%): Hypophosphataemia (drug related AE, Grade 3 and 4) (All patients (N = 36))
9 (25) n (%): Pruritus (drug related AE, all grades) (All patients (N = 36))

Reference: publication PMC7523345 (Investigational new drugs, 2018)
